Reference: US20180244611A1, “Modulators of the Cystic Fibrosis Transmembrane Conductance Regulator Protein and Methods of Use” (AbbVie S.à.r.l., priority 2017, published 2018)

Assays:
F508delCFTR [1] = molecular target: T1, F508delCFTR (Homo sapiens, UniProt P13569, DEL508-508); experiment: Cell Surface Expression-Horse Radish Peroxidase (CSE-HRP) assay, test compound with co-corrector; assay type: cell-based; conditions: with 2 μM co-corrector; for Maximum % activity (with co-corrector): maximum at any tested concentration, normalized to positive control;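 on Maximum % activity (with co-corrector): percent of 2 µM positive control corrector over DMSO; co-corrector is that same compound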
T1 construct: expressed in transfected cells; host or cells: CFBE41o- human lung-derived epithelial cells (CFBE41o-F508delCFTR-HRP), doxycycline-inducible
T1 sequence (P13569 with tags, fused parts or gaps DEL508-508): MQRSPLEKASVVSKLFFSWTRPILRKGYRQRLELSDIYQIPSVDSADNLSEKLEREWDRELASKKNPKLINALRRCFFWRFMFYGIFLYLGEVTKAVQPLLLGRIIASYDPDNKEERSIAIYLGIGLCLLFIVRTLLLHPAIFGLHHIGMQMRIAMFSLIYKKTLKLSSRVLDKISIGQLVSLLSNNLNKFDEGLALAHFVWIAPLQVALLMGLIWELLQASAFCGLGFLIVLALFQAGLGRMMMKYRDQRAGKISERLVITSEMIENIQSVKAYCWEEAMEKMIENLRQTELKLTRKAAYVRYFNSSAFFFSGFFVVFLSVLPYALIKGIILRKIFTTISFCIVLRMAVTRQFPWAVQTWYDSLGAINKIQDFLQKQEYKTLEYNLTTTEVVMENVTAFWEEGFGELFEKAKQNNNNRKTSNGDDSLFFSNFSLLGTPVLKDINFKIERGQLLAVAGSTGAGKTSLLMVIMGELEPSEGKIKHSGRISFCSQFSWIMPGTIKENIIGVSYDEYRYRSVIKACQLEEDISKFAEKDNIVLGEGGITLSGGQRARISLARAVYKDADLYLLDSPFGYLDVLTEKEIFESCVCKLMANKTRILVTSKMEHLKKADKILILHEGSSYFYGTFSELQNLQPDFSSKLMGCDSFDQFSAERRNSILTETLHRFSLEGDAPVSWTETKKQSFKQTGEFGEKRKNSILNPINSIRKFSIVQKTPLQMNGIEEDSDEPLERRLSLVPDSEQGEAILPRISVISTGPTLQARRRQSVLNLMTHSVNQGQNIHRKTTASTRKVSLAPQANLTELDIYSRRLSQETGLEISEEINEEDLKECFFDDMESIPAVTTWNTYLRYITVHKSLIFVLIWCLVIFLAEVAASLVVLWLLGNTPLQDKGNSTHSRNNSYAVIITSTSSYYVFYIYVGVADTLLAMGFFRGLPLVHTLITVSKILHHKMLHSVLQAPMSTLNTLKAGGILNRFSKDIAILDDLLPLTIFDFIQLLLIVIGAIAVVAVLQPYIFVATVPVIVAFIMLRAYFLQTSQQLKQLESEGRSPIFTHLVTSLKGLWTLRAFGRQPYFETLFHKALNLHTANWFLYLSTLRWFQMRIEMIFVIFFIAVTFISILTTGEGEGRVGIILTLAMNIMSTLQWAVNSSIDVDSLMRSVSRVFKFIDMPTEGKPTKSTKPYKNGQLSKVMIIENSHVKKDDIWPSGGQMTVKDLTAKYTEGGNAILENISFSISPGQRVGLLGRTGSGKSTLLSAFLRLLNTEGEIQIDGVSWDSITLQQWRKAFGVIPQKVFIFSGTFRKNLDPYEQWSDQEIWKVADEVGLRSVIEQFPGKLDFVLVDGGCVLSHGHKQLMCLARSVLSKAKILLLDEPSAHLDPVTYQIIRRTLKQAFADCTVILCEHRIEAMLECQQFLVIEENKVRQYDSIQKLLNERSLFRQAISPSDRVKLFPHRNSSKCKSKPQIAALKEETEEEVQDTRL
Method in brief: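 CFBE41o- cells expressing F508delCFTR with HRP in the fourth exofacial loop, induced with 0.5 μg/mL doxycycline for 72 h, then treated 18-24 h at 33° C. with compound (8 points, top 20 μM, 3-fold) plus 2 μM co-corrector. Surface HRP read by luminol luminescence; activity normalised to positive control, EC50 from variable-slope sigmoidal fit.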

F508delCFTR [2] = molecular target: T1, F508delCFTR; experiment: Cell Surface Expression-Horse Radish Peroxidase (CSE-HRP) assay, test compound without co-corrector; assay type: cell-based; conditions: for Emax: maximum at any tested concentration, normalized to positive control, without co-corrector; for EC50: test compound without co-corrector;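 on Emax: percent of on-plate 2 µM positive control corrector response over DMSO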
Method in brief: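 CFBE41o- cells expressing F508delCFTR with HRP in the fourth exofacial loop, induced with 0.5 μg/mL doxycycline for 72 h at 37° C, then exposed to compound alone for 18-24 h at 33° C, 8-point 3-fold series from 20 μM. Surface HRP read by luminol luminescence, normalized to positive corrector control versus DMSO; EC50 from variable-slope sigmoidal fit of three replicate plates.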

| Structure (SMILES) | Maximum % activity (with co-corrector) (F508delCFTR [1]) | EC50 (F508delCFTR [1]) | Emax (F508delCFTR [2]) | EC50 (F508delCFTR [2]) |
| --- | --- | --- | --- | --- |
| Cc1ccccc1S(=O)(=O)NC(=O)C1CCc2c(OC(C)C)cccc21 (stereo not shown) [II-40] | ++ (≥150 and <350) | 3 to 10 µM | 50 to 150% | 3 to 10 µM |
| COc1ccc(Br)c2c1CCC2C(=O)NS(=O)(=O)c1ccccc1C (stereo not shown) [II-41] | +++ (≥350) | 3 to 10 µM | 50 to 150% | 3 to 10 µM |
| COc1cc(-c2cccc3c2CCC3C(=O)NS(=O)(=O)c2ccccc2C)ccn1 (stereo not shown) [II-42] | ++ (≥150 and <350) | 3 to 10 µM | 50 to 150% | 3 to 10 µM |
| COc1cccc2c1CCCC2C(=O)NS(=O)(=O)c1cccc2cccnc12 (stereo not shown) [II-43] | ++ (≥150 and <350) | 3 to 10 µM | 50 to 150% | 3 to 10 µM |
| COc1ccc2c(c1)CC[C@@]2(C)C(=O)NS(=O)(=O)c1cccc2ccccc12 [II-44] | +++ (≥350) | 3 to 10 µM | 50 to 150% | 3 to 10 µM |
| COc1ccc2c(c1)CC[C@]2(C)C(=O)NS(=O)(=O)c1cccc2ccccc12 [II-45] | +++ (≥350) | 3 to 10 µM | ≥ 150% | 3 to 10 µM |
| COc1cccc2c1CC[C@]2(C)C(=O)NS(=O)(=O)c1cccc2ccccc12 [II-46] | +++ (≥350) | 3 to 10 µM | 50 to 150% | 3 to 10 µM |
| COc1cccc2c1CC(C(=O)NS(=O)(=O)c1cccc3ccccc13)C2 (stereo not shown) [II-48] | +++ (≥350) | 3 to 10 µM | 50 to 150% | 3 to 10 µM |
| CC1(C(=O)NS(=O)(=O)c2cccc3ccccc23)CCc2ccc(OC(F)(F)F)cc21 (stereo not shown) [II-49] | +++ (≥350) | < 3 µM | ≥ 150% | 3 to 10 µM |
| O=C(NS(=O)(=O)c1cccc2ccccc12)C1CCCc2c(O)ccc(Br)c21 (stereo not shown) [II-50] | ++ (≥150 and <350) | 3 to 10 µM | < 50% | 3 to 10 µM |
| COc1ccc2c(c1OC)CCCC2C(=O)NS(=O)(=O)c1cccc2ccccc12 (stereo not shown) [II-51] | +++ (≥350) | 3 to 10 µM | 50 to 150% | 3 to 10 µM |
| O=C(NS(=O)(=O)c1cccc2ccccc12)C1CCCc2c1ccc1c2OCCO1 (stereo not shown) [II-52] | +++ (≥350) | 3 to 10 µM | 50 to 150% | 3 to 10 µM |
| COc1cc2c(cc1OC)C(C(=O)NS(=O)(=O)c1cccc3ccccc13)CCC2 (stereo not shown) [II-53] | +++ (≥350) | 3 to 10 µM | 50 to 150% | 3 to 10 µM |
| CCC1(C(=O)NS(=O)(=O)c2ccccc2Cl)CCc2c(Cl)cccc21 (stereo not shown) [II-54] | ++ (≥150 and <350) | < 3 µM | < 50% | < 3 µM |
| CCC1(C(=O)NS(=O)(=O)c2ccccc2OC)CCc2c(Cl)cccc21 (stereo not shown) [II-55] | + (<150) | ≥ 10 µM | < 50% | ≥ 10 µM |
| CCC1(C(=O)NS(=O)(=O)c2cc(C)ccc2C(C)C)CCc2c(Cl)cccc21 (stereo not shown) [II-56] | ++ (≥150 and <350) | < 3 µM | < 50% | < 3 µM |
| CCC1(C(=O)NS(=O)(=O)c2cccc(Cl)c2COC)CCc2c(Cl)cccc21 (stereo not shown) [II-57] | ++ (≥150 and <350) | < 3 µM | < 50% | < 3 µM |
| CCC1(C(=O)NS(=O)(=O)c2ccccc2F)CCc2c(Cl)cccc21 (stereo not shown) [II-58] | ++ (≥150 and <350) | < 3 µM | < 50% | < 3 µM |
| CCC1(C(=O)NS(=O)(=O)c2ccccc2Oc2ccccc2)CCc2c(Cl)cccc21 (stereo not shown) [II-59] | ++ (≥150 and <350) | < 3 µM | < 50% | < 3 µM |
| CCC1(C(=O)NS(=O)(=O)c2ccccc2OC(F)(F)F)CCc2c(Cl)cccc21 (stereo not shown) [II-60] | + (<150) | ≥ 10 µM | < 50% | ≥ 10 µM |
| CCC1(C(=O)NS(=O)(=O)c2ccccc2OC(F)F)CCc2c(Cl)cccc21 (stereo not shown) [II-61] | + (<150) | ≥ 10 µM | < 50% | ≥ 10 µM |
| CCC1(C(=O)NS(=O)(=O)c2cc(C)ccc2C)CCc2c(Cl)cccc21 (stereo not shown) [II-62] | + (<150) | ≥ 10 µM | < 50% | ≥ 10 µM |

| Structure (SMILES) | Maximum % activity (with co-corrector) (F508delCFTR [1]) | EC50 (F508delCFTR [1]) | Emax (F508delCFTR [2]) | EC50 (F508delCFTR [2]) |
| --- | --- | --- | --- | --- |
| CCC1(C(=O)NS(=O)(=O)c2ccccc2OCCOC)CCc2c(Cl)cccc21 (stereo not shown) [II-63] | ++ (≥150 and <350) | < 3 µM | < 50% | < 3 µM |
| CCC1(C(=O)NS(=O)(=O)c2ccccc2-c2ccccc2)CCc2c(Cl)cccc21 (stereo not shown) [II-64] | ++ (≥150 and <350) | < 3 µM | < 50% | < 3 µM |
| CCC1(C(=O)NS(=O)(=O)c2ccc3ccccc3c2)CCc2c(Cl)cccc21 (stereo not shown) [II-65] | ++ (≥150 and <350) | 3 to 10 µM | < 50% | 3 to 10 µM |
| CCC1(C(=O)NS(=O)(=O)c2ccccc2)CCc2c(Cl)cccc21 (stereo not shown) [II-66] | ++ (≥150 and <350) | < 3 µM | 50 to 150% | < 3 µM |
| CCC1(C(=O)NS(=O)(=O)c2cccc3nsnc23)CCc2c(Cl)cccc21 (stereo not shown) [II-67] | + (<150) | ≥ 10 µM | < 50% | ≥ 10 µM |
| O=C(NS(=O)(=O)c1cccc2ccccc12)C1CCc2ccccc21 (stereo not shown) [II-68] | ++ (≥150 and <350) | < 3 µM | < 50% | 3 to 10 µM |
| O=C(NS(=O)(=O)c1cccc2ccccc12)C1(CC2CCOC2)CCc2c(Cl)cccc21 (stereo not shown) [II-69] | +++ (≥350) | < 3 µM | 50 to 150% | < 3 µM |
| O=C(NS(=O)(=O)c1cccc2ccccc12)C1(CCn2cccn2)CCc2c(Cl)cccc21 (stereo not shown) [II-70] | ++ (≥150 and <350) | < 3 µM | 50 to 150% | < 3 µM |
| COc1cc(CC2(C(=O)NS(=O)(=O)c3cccc4ccccc34)CCc3c(Cl)cccc32)ccn1 (stereo not shown) [II-72] | ++ (≥150 and <350) | < 3 µM | 50 to 150% | < 3 µM |
| CCC1(C(=O)NS(=O)(=O)c2cccc3c2OCCO3)CCc2c(Cl)cccc21 (stereo not shown) [II-74] | + (<150) | ≥ 10 µM | < 50% | ≥ 10 µM |
| O=C(NS(=O)(=O)c1cccc2ccccc12)C1CCc2c(Br)cccc21 (stereo not shown) [II-75] | +++ (≥350) | < 3 µM | ≥ 150% | 3 to 10 µM |
| CCC1(C(=O)NS(=O)(=O)c2ccc(Br)c3ccccc23)CCc2c(Cl)cccc21 (stereo not shown) [II-76] | ++ (≥150 and <350) | < 3 µM | < 50% | < 3 µM |
| CCC1(C(=O)NS(=O)(=O)c2ccc(F)c3ccccc23)CCc2c(Cl)cccc21 (stereo not shown) [II-77] | ++ (≥150 and <350) | < 3 µM | < 50% | < 3 µM |
| CCC1(C(=O)NS(=O)(=O)c2cccc3c(Br)cccc23)CCc2c(Cl)cccc21 (stereo not shown) [II-78] | +++ (≥350) | < 3 µM | 50 to 150% | < 3 µM |
| CCC1(C(=O)NS(=O)(=O)c2cccc3c2CCCC3)CCc2c(Cl)cccc21 (stereo not shown) [II-79] | ++ (≥150 and <350) | < 3 µM | 50 to 150% | < 3 µM |
| CCC1(C(=O)NS(=O)(=O)c2ccc(C3CCC3)c3ccccc23)CCc2c(C3CCC3)cccc21 (stereo not shown) [II-82] | ++ (≥150 and <350) | 3 to 10 µM | < 50% | ≥ 10 µM |
| CCC1(C(=O)NS(=O)(=O)c2cccc3c(C4CCC4)cccc23)CCc2c(C3CCC3)cccc21 (stereo not shown) [II-83] | ++ (≥150 and <350) | 3 to 10 µM | 50 to 150% | 3 to 10 µM |
| O=C(NS(=O)(=O)c1cccc2ccccc12)C1CCCc2c(OCC3CCCCC3)ccc(Br)c21 (stereo not shown) [II-84] | ++ (≥150 and <350) | 3 to 10 µM | 50 to 150% | 3 to 10 µM |
| COc1cccc(COc2ccc(Br)c3c2CCCC3C(=O)NS(=O)(=O)c2cccc3ccccc23)c1 (stereo not shown) [II-85] | ++ (≥150 and <350) | 3 to 10 µM | < 50% | 3 to 10 µM |
| COc1cccc(COc2ccc(Br)c3c2CCCC3C(=O)N(Cc2cccc(OC)c2)S(=O)(=O)c2cccc3ccccc23)c1 (stereo not shown) [II-86] | ++ (≥150 and <350) | 3 to 10 µM | < 50% | ≥ 10 µM |
| CCOC(=O)COc1ccc(Br)c2c1CCCC2C(=O)NS(=O)(=O)c1cccc2ccccc12 (stereo not shown) [II-87] | ++ (≥150 and <350) | < 3 µM | < 50% | < 3 µM |
